This passage reports inhibition, Activity and fold change (FC) results from ChEMBL document CHEMBL1152915, “The inhibitory mechanism of a novel cationic glucosamine derivative against MMP-2 and MMP-9 expressions” (Bioorg Med Chem Lett, 2009).

Each structure is given as a SMILES string. Active and inactive are the calls of the source. The rule behind the calls is not given here.

Data set [1] concerns the target 72 kDa type IV collagenase (Homo sapiens) (UniProt P08253). The data set can be described thus: Inhibition of MMP2 in phorbol myristate acetate-stimulated human HT1080 cells by gelatin zymography relative to control. To be noted: HT-1080. Format: cell-based.
In data set [2] the target is Matrix metalloproteinase-9 (Homo sapiens) (UniProt P14780). The data set can be described thus: Inhibition of MMP9 in phorbol myristate acetate-stimulated human HT1080 cells by gelatin zymography relative to control. To be noted: HT-1080. Format: cell-based.
Matrix metalloproteinase-9 (Homo sapiens), sequence (P14780 whole entry): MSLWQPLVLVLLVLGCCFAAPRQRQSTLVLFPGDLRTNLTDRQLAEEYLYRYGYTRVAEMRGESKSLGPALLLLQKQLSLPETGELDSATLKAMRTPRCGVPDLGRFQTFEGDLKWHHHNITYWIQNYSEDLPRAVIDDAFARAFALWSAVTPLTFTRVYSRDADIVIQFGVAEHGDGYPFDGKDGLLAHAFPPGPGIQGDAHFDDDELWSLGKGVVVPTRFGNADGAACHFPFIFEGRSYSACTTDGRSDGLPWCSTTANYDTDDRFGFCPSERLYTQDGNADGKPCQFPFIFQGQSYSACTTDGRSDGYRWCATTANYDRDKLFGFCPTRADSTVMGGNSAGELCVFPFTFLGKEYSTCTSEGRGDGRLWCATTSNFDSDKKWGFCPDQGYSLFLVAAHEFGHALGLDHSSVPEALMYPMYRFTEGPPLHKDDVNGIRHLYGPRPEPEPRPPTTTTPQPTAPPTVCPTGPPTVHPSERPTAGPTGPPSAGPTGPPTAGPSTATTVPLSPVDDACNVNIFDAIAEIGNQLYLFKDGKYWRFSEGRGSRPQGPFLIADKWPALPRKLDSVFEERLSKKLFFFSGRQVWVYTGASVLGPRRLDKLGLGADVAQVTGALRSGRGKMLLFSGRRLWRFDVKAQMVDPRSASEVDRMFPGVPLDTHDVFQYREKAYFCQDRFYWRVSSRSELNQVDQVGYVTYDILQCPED
For data set [3], the target named is 72 kDa type IV collagenase (Homo sapiens) (UniProt P08253). In words: Reduction of gelatinolytic activity of MMP2 in phorbol myristate acetate-stimulated human HT1080 cells at 40 and 60 ug/ml. To be noted: HT-1080. It counts as cell-based.
72 kDa type IV collagenase (Homo sapiens), sequence (P08253 110-660 limits assumed): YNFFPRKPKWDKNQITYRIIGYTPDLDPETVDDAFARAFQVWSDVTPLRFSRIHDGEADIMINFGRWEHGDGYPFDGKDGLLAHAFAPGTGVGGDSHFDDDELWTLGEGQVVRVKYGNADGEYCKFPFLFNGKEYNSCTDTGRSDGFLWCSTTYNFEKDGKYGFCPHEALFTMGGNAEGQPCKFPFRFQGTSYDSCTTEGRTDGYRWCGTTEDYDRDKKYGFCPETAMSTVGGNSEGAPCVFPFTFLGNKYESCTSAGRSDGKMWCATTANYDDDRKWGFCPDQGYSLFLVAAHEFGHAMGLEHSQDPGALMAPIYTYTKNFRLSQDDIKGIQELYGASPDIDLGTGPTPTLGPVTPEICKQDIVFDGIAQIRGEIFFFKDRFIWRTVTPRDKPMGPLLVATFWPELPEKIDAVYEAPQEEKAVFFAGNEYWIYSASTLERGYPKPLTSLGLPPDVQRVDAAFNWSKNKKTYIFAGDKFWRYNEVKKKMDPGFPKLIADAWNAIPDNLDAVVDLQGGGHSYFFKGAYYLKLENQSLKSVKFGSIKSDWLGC
Data set [4] has as its target Matrix metalloproteinase-9 (Homo sapiens) (UniProt P14780). In words: Reduction of gelatinolytic activity of MMP9 in phorbol myristate acetate-stimulated human HT1080 cells at 40 and 60 ug/ml. Format: cell-based. To be noted: HT-1080.
In data set [5] the target is 72 kDa type IV collagenase (Homo sapiens) (UniProt P08253). The data set can be described thus: Inhibition of MMP2 gelatinolytic activity in phorbol myristate acetate-stimulated human HT1080 cells at 60 ug/ml by gelatin zymography relative to control. To be noted: HT-1080. Format: cell-based.
Data set [6] deals with Matrix metalloproteinase-9 (Homo sapiens) (UniProt P14780). The data set can be described thus: Inhibition of MMP9 gelatinolytic activity in phorbol myristate acetate-stimulated human HT1080 cells at 60 ug/ml by gelatin zymography relative to control. It counts as cell-based. To be noted: HT-1080.
Data set [7] concerns the target 72 kDa type IV collagenase (Homo sapiens) (UniProt P08253). In words: Inhibition of MMP2 gene promoter activity in phorbol myristate acetate-stimulated human HT1080 cells by luciferase reporter gene assay. Format: cell-based. The conditions noted are these: HT-1080.
For data set [8], the target named is Matrix metalloproteinase-9 (Homo sapiens) (UniProt P14780). The data set can be described thus: Inhibition of MMP9 gene promoter activity in phorbol myristate acetate-stimulated human HT1080 cells by luciferase reporter gene assay. Format: cell-based. The conditions noted are these: HT-1080. Background: Reporter assays use an easily measured gene product as a stand-in for the process of interest.

For data set [9], the target named is 72 kDa type IV collagenase (Homo sapiens) (UniProt P08253). The data set can be described thus: Inhibition of MMP2 gene promoter activity in phorbol myristate acetate-stimulated human HT1080 cells at 60 ug/ml by luciferase reporter gene assay relative to control. It counts as cell-based. The conditions noted are these: HT-1080.
In data set [10] the target is Matrix metalloproteinase-9 (Homo sapiens) (UniProt P14780). In words: Inhibition of MMP9 gene promoter activity in phorbol myristate acetate-stimulated human HT1080 cells at 60 ug/ml by luciferase reporter gene assay relative to control. It counts as cell-based. To be noted: HT-1080.
Data set [11] deals with HT-1080. The data set can be described thus: Inhibition of NF-kappaB gene promoter activity in phorbol myristate acetate-stimulated human HT1080 cells at 60 ug/ml by luciferase reporter gene assay. It counts as cell-based.
Data set [12] deals with Transcription factor Jun (Homo sapiens) (UniProt P05412). In words: Inhibition of AP1 gene promoter activity in phorbol myristate acetate-stimulated human HT1080 cells at 60 ug/ml by luciferase reporter gene assay. It counts as cell-based. To be noted: HT-1080.
Transcription factor Jun (Homo sapiens), sequence (P05412 whole entry): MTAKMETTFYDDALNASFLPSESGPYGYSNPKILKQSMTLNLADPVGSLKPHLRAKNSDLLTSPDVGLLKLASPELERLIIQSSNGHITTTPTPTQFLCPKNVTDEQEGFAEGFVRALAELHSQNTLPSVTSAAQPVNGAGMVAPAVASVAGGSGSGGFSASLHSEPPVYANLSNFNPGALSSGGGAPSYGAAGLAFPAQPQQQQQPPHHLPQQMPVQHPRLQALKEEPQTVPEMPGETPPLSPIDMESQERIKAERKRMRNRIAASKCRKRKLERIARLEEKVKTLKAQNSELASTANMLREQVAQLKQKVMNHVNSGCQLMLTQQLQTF
In data set [13] the test system is HT-1080. In words: Suppression of MMP2 expression in phorbol myristate acetate-stimulated human HT1080 cells by Western blotting relative to control. Format: functional, cell-based. Background: In western blotting, separated proteins are transferred to a membrane and probed.
The test system of data set [14] is HT-1080. The data set can be described thus: Suppression of MMP9 expression in phorbol myristate acetate-stimulated human HT1080 cells by Western blotting relative to control. Format: functional, cell-based.
Data set [15] has as its system HT-1080. In words: Suppression of NF-kappaB p65 subunit expression in phorbol myristate acetate-stimulated human HT1080 cell cytoplasm by Western blotting relative to control. Format: functional, cell-based.
Data set [16] relates to HT-1080. The data set can be described thus: Suppression of NF-kappaB p65 subunit expression in phorbol myristate acetate-stimulated human HT1080 cell nucleus by Western blotting relative to control. It counts as functional, cell-based.
Data set [17] deals with HT-1080. The data set can be described thus: Suppression of AP1 c-FOS subunit expression in phorbol myristate acetate-stimulated human HT1080 cell cytoplasm by Western blotting relative to control. Format: functional, cell-based.
Data set [18] deals with HT-1080. In words: Suppression of AP1 c-FOS subunit expression in phorbol myristate acetate-stimulated human HT1080 cell nucleus by Western blotting relative to control. It counts as functional, cell-based.
The subject of data set [19] is HT-1080. In words: Suppression of TIMP1 expression in phorbol myristate acetate-stimulated human HT1080 cells by Western blotting relative to control. It counts as functional, cell-based.
Data set [20] concerns HT-1080. In words: Suppression of TIMP2 expression in phorbol myristate acetate-stimulated human HT1080 cells by Western blotting relative to control. Format: functional, cell-based.
Data set [21] has as its system HT-1080. In words: Inhibition of ERK expression in phorbol myristate acetate-stimulated human HT1080 cells at 60 ug/ml by Western blotting relative to control. It counts as functional. Details: scale not given: the % may be the effect or the level left.
Data set [22] deals with HT-1080. In words: Inhibition of JNK expression in phorbol myristate acetate-stimulated human HT1080 cells at 60 ug/ml by Western blotting relative to control. Format: functional, cell-based.
For data set [23], the system named is HT-1080. In words: Inhibition of p38 expression in phorbol myristate acetate-stimulated human HT1080 cells at 60 ug/ml by Western blotting relative to control. It counts as functional, cell-based.
The test system of data set [24] is HT-1080. The data set can be described thus: Antiinvasive activity in human HT1080 cells at 20 ug/ml after 48 hrs. Format: functional.
Data set [25] deals with HT-1080. In words: Inhibition of cell migration in human HT1080 cells at 60 ug/ml. Format: functional.
Data set [26] concerns HT-1080. The data set can be described thus: Cytotoxicity against human HT1080 cells assessed as cell viability at upto 60 ug/ml. Format: cell-based.
The target in data set [27] is 72 kDa type IV collagenase (Homo sapiens) (UniProt P08253). In words: Inhibition of MMP2 gelatinolytic activity in human HT1080 cells at upto 60 ug/ml by gelatin zymography relative to control. It counts as cell-based. The conditions noted are these: HT-1080.
In data set [28] the target is Matrix metalloproteinase-9 (Homo sapiens) (UniProt P14780). In words: Inhibition of MMP9 gelatinolytic activity in human HT1080 cells at upto 60 ug/ml by gelatin zymography relative to control. The conditions noted are these: HT-1080. It counts as cell-based.
Data set [29] relates to HT-1080. The data set can be described thus: Antiinvasive activity in human HT1080 cells at 60 ug/ml after 48 hrs. Format: functional, cell-based.

As usually defined, the inhibition is the change of the read-out against control, counted positive when it falls. With `C[N+](C)(C)CC(O)CN[C@@H]1[C@@H](O)[C@H](O)[C@@H](CO)O[C@H]1O` (stereo partly drawn), the inhibition result (in data set [1]; in data set [2]; in the data set with HT-1080 [22]; in the data set on HT-1080 [23]) was “Active” throughout. The outcome (in data set [3]; in data set [4]; with HT-1080 [15]; in the data set with HT-1080 [16]; in the data set on HT-1080 [17]; in the data set with HT-1080 [18]) was Active. Moreover, the inhibition in data set [5] is 62%; in [6], 50%; in [7] it was “Dose-dependent effect”; in data set [8], “Dose-dependent effect”; in the data set on HT-1080 [11], 65%; in data set [12], 60%. In addition, the fold change (FC) in data set [9] and in [10] was 3 in each case. The Activity result with HT-1080 [13] was “Dose-dependent effect”; in the data set with HT-1080 [14], “Dose-dependent effect”; in the data set on HT-1080 [21], 60%; in the data set with HT-1080 [24] it was 50%; in the data set on HT-1080 [26], “Non-toxic”. Also, the result in the data set on HT-1080 [19] and in the data set on HT-1080 [20] was inactive. The same compound showed an inhibition at 60 µg/mL with HT-1080 [25] of 70%. In addition, the inhibition result in data set [27] and in data set [28] was “inactive” each time.
For the compound `N[C@H]1C(O)O[C@H](CO)[C@@H](O)[C@@H]1O` (stereo partly drawn), the inhibition entry in [5] and in data set [6] was “inactive” throughout. Besides, the result in the data set on HT-1080 [29] was inactive.
For `C[C@H]1c2cccc(O)c2C(=O)C2=C(O)[C@]3(O)C(=O)C(C(N)=O)=C(O)[C@@H](N(C)C)[C@@H]3[C@@H](O)[C@@H]21`, the inhibition entry in [27] and in data set [28] was “inactive” throughout.
